Where a SMILES comes first, the peptide text is derived from it. The star is where a group is joined. Cbz = O=C(OCc1ccccc1)*

The record followed here is patent EP4623912A1, “A METHOD FOR DEFATTENING A STEATOTIC LIVER EX VIVO” (ETH Zurich, priority 2024, dated 2025).

Experiment [1] has as its system ATGL. As to the kind of experiment: Block of proteasome mediated degradation, cellular ATGL protein. To be noted: proteasome blocked; Chloroquine (autophagy) had no such effect. It counts as cell-based.
Experiment [2] deals with ATGL. The experiment is described as follows: ATGL response to glucose deprivation in HepG2 cells after BFA treatment. It counts as cell-based, human. To be noted: HepG2, 5 µg/mL BFA for 6 hours before glucose deprivation. As to the method:
(§1) HepG2 cell type was cultured in RPMI medium with 10% FBS and 1% Pen/Strep on collagen-coated plates. Lipofectamine RNAiMAX reagent mediated siRNA (100 nM) was delivered to cells at the suspended state for 48 h. Different from HEK cells, it is not necessary to induce LDs via OA treatment in that there exist LDs in the HepG2 cell type at normal culture medium. The inventors treated HepG2 cells with 10 µM PF04620110 (DGAT1 inhibitor, Sigma) & PF-06424439 (DGAT2 inhibitor, Sigma) for 48 hours or with 5 µg/mL BFA (B5936, Sigma) for 6 hours to deplete LDs and intact Golgi in the HepG2 cell type respectively before glucose deprivation. To deprive glucose in the HepG2 cell type, we either added 2-DG at indicated concentrations to the culture medium or refresh cells with RPMI medium containing different glucose concentrations prepared from the same RPMI medium (Gibco, 11879020).
(§2) Adipose depots, liver pieces, differentiated iBAs, HepG2, HEK293T and HEK293-AAV cell types were homogenized in RIPA buffer (50 mM Tris-HCl pH 7.4, 150 mM NaCl, 2 mM EDTA, 1.0% Triton X100, 0.5% sodium deoxycholate) with protease inhibitors (Complete, Roche) and phosphatase inhibitors (Halt phosphatase inhibitor cocktail, ThermoFisher). […] The concentration of WCE was determined by DC Protein Assay (Bio-Rad). […]

For experiment [3], the system named is C57BL/6N male mice. The experiment is described as follows: Glucose deprivation by 2-DG injection in mice. It counts as in vivo, mouse. As to the method:
All animal experiments were permitted by the Veterinary office of the Canton of Zurich. Both female and male mice were used in the experiments, and they were housed 2-5 littermates per cage in ventilated cages at standard housing conditions (22°C, 12 h reversed light/dark cycle, dark phase starting at 7 am) with normal chow diet (18% proteins, 4.5% fibers, 4.5% fat, 6.3% ashes, Provimi Kliba SA) and water. Health status of all the mouse lines were monitored regularly based on FELASA guidelines. 8-10 weeks old C57BL/6N male mice were fasted for 24 h or injected with 2-DG (2 g/kg BW) to induce glucose deprivation for different durations. Female ROSA26-LSL-spCas9 mice (The Jackson Lab strain) were intravenously injected with AAV8-U6-Pi4kb gRNAs-TBG-Cre, AAV8-U6-Sacm1l gRNAs-TBG-Cre, AAV8-U6-Cu/7 gRNAs-TBG-Cre and AAV8-U6-Fbxw8 gRNAs-TBG-Cre virus pools to express six gRNAs targeting individual gene and CAS9 in the liver at a dose of 3×10^11 genome copies/mouse. Two weeks later, livers were harvested for protein and RNA extraction after 6 hours fasting. To determine liver TG levels under NCD feeding condition, 4 weeks after AAV administration livers were harvested after 6 hours fasting. Also 4 weeks after AAV administration, the liver specific Cul7&Fbxw8 double knockout mice were injected with 2-DG (2 g/kg BW) to induce 1 hour glucose deprivation prior to liver harvesting for protein extraction.
Adipose depots, liver pieces, differentiated iBAs, HepG2, HEK293T and HEK293-AAV cell types were homogenized in RIPA buffer (50 mM Tris-HCl pH 7.4, 150 mM NaCl, 2 mM EDTA, 1.0% Triton X100, 0.5% sodium deoxycholate) with protease inhibitors (Complete, Roche) and phosphatase inhibitors (Halt phosphatase inhibitor cocktail, ThermoFisher). The homogenates were centrifuged at 12,000×g for 10 min at 4°C to remove debris and collect whole cell extract (WCE). The concentration of WCE was determined by DC Protein Assay (Bio-Rad). After boiling the sample with Lämmeli buffer at 95°C for 5 min, equal amount of proteins was loaded and separated on 12% SDS-PAGE. The proteins were transferred to nitrocellulose membrane and blotted by ATGL (1:1000, Cell Signaling), CGI-58 (1:1000, Proteintech), phospho-HSL(Ser660) (1:1000, Cell Signaling), PLIN1 (1:1000, Cell Signaling), HSL (1:1000, Cell Signaling), γ-tubulin (1:10000, Sigma), FLAG (1:10000, Sigma; 1:1000, Cell Signaling), MGL (1:1000, Abcam), HA (1:1000, Cell signaling), FBXW8 (1:100, Santa Cruz; 1:1000, Sigma), CUL7 (1:100, Santa Cruz), HSP90 (1:1000, Cell Signaling), K48 polyubiquitin (1:1000, Cell signaling), PI4KB (1:1000, Sigma), SACM1L (1:1000, Sigma), AKT1 (1:1000, Cell Signaling), phospho-AKT1(Ser473) (1:1000, Cell Signaling), TGN46 (1:1000, Abcam), MAOA (1:1000, Abcam), PLIN2 (1:1000, Abcam), PMP70 (1:10000, Sigma), Calnexin (1:1000, Cell Signaling), ARF1 (1:1000, Invitrogen), GAPDH (1:1000, Cell Signaling), RAB7 (1:1000, Cell Signaling), alpha 1 Sodium Potassium ATPase (1:1000, Abcam), Cleaved Caspase-3 (1:1000, Cell Signaling), phospho-AMPKα (Thr172) (1:1000, Cell Signaling), AMPKα (1:1000, Cell Signaling) and GM130 (1:1000, Proteintech). The primay antibody signal was visualized by HRP-conjugated secondary antibodies (1:5000, Millipore) and the ImageQuant system (GE Healthcare Life Sciences).
For mouse insulin measurement, plasma was collected at different timepoints after 2-DG administration in wild type mice. 5 µl plasma sample was used to determine insulin levels via Ultra-sensitive mouse insulin ELISA kit (Crystal Chem, Cat# 90080) according to the manufacturer's protocol. The absorbance was measured via Synergy Gen5 Platereader at 450/630 nm. 2 µl plasma sample was used to determine glucose levels via Glucose Assay Kit (Sigma, MAK263) according to the manufacturer's protocol. The absorbance was read at 570 nm in Synergy Gen5 Platereader.
Plasma collected from mice under different conditions was used to determine levels of lipolysis and liver injury. […]

Experiment [4] concerns ATGL. As to the kind of experiment: ATGL in HepG2 cells after 2-DG treatment. It counts as cell-based, human. On the procedure: as §1, with “To deprive glucose in the HepG2 cell type, we either added 2-DG at indicated concentrations to the culture medium or refresh cells with RPMI medium containing different glucose concentrations prepared from the same RPMI medium (Gibco, 11879020).” left out
Total RNA was extracted from adipose depots, liver or in vitro cell cultures via Trizol reagent (Invitrogen) according to the manufacturer's instructions. […] Quantitative PCR was performed using KAPA SYBR FAST Universal kit (Roche, KK4618) on ViiA7 (Applied Biosystems) and the relative transcript levels were normalized to […] expression via ΔΔCt method. […]
as §2

Setting [5] is: only 1 hour after 2-DG administration.

In the case of `CC(C)C[C@@H](C=O)NC(=O)[C@H](CC(C)C)NC(=O)[C@H](CC(C)C)NC(=O)OCc1ccccc1` [MG132] (Cbz-Leu-Leu-Leu-aldehyde), in experiment [1], the “cellular ATGL protein” value is “accumulation”.

Consider `C[C@H]1CCC/C=C/[C@@H]2C[C@H](O)C[C@H]2[C@H](O)/C=C/C(=O)O1` [BFA, Brefeldin A], for which the “intracellular ATGL levels upon glucose deprivation” value in experiment [2] is “failed to upregulate”.

Regarding `O=CC[C@@H](O)[C@H](O)[C@H](O)CO` [2-DG, 2-Deoxy-D-glucose], the “lipolysis (plasma FFA levels)” value in experiment [3] (2-DG 2 g/kg BW, 1 h, 6 h, 12 h (Fig. 1c)) is on record as “significantly induced”. Further, the “ATGL levels in livers of wild-type mice” value in experiment [3] (2-DG for 1 hour, not in Cul7 and Fbxw8 double knockout (Fig. 6c)) is reported as “upregulation”. Further, in experiment [3] (1 hour after 2-DG), the “ATGL protein levels in the liver and iBAT” value was “increased”. In addition, the “ATGL protein levels in the liver, iBAT, iWAT and gWAT” value in experiment [3] (longer glucose deprivation (6 h, 12 h after 2-DG)) was “further accumulation”. Besides, in experiment [3] (setting [5]), the “HSL phosphorylation in white adipose tissues” value was “upregulation” and the plasma insulin levels result is “reduction”. Also, the ATGL protein abundance entry in experiment [4] (HepG2, 50 mM 2-DG (Fig. 2b)) is “strongly induced”. In addition, the ATGL transcript levels result in experiment [4] (HepG2, 2-DG treatment) was “without changing”.
